Earlier results as cited in patent publication US20240316075A1, “METHODS FOR TREATMENT OF PAIN WITH CANNABINOIDS” (ANANDA SCIENTIFIC, INC, priority 2021, published 2024).

Legend:
[1] = doses ranging from 10 mg to 6000 mg, single and multiple doses
CB2 receptors = CB2 receptors (Homo sapiens, UniProt P34972)
[2] = rats, oral, 120 mg/kg dose

Sequence of CB2 receptors (P34972 whole entry): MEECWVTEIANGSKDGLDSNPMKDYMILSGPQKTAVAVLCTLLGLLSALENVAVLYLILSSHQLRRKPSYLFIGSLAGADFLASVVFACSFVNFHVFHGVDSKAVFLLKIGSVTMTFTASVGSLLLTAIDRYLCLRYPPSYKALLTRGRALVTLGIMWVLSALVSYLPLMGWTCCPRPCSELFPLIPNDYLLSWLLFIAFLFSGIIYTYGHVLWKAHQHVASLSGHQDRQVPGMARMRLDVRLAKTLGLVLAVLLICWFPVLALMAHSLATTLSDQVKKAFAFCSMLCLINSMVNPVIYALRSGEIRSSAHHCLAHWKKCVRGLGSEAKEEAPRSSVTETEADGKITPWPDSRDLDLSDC

SMILES: C=C(C)[C@@H]1CCC(C)=C[C@H]1c1c(O)cc(CCCCC)cc1O [CBD, 2-(1R,6R)-3-methyl-6-prop-1-en-2-ylcyclohex-2-en-1-yl-5-pentylbenzene-1,3-diol]
- Safety finding [1]: safe
- Affinity for CB2 receptors (CB2 receptors): low affinity
- T½ [2]: 4 to 5 h
